Test results from PubChem BioAssay AID330 (DTP/NCI, 2004).
“And” between values parts separate entries of the source, which are not always exact repeats. Identical values can stand only once. Inconclusive results and toxic doses are left out. How the source made its calls: active means survival T/C of 150% or more; inactive means T/C below 125% in these data.

System: P388 leukemia ip, CD2F1 mice, survival T/C
Test: NCI In Vivo Anticancer Drug Screen. Data for tumor model P388 Leukemia (intraperitoneal) in CD2F1 (CDF1) mice
Details: endpoint: median survival time, higher = longer survival
Method in brief: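 Mice carrying the transplanted tumor received test compound or vehicle. Survival was recorded in each group, and the value is the treated-group measurement divided by that of the vehicle-treated control group.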

[1] = dose: 50.0 mg/kg/injection, schedule: Q01DX005 (ip), vehicle: Klucel (hydroxypropylcellulose) (HPC)
[2] = dose: 100.0 mg/kg/injection, schedule: Q01DX005 (ip), vehicle: Klucel (hydroxypropylcellulose) (HPC)
[3] = dose: 200.0 mg/kg/injection, schedule: Q01DX005 (ip), vehicle: Klucel (hydroxypropylcellulose) (HPC)
[4] = dose: 60.0 mg/kg/injection, schedule: Q01DX005 (ip), vehicle: saline with Tween-80
[5] = dose: 120.0 mg/kg/injection, schedule: Q01DX005 (ip), vehicle: saline with Tween-80
[6] = dose: 240.0 mg/kg/injection, schedule: Q01DX005 (ip), vehicle: saline with Tween-80
[7] = dose: 50.0 mg/kg/injection, schedule: Q01DX009 (ip), vehicle: saline with Tween-80
[8] = dose: 50.0 mg/kg/injection, schedule: Q01DX009 (ip), vehicle: other
[9] = dose: 100.0 mg/kg/injection, schedule: Q01DX009 (ip), vehicle: other
[10] = dose: 200.0 mg/kg/injection, schedule: Q01DX009 (ip), vehicle: other
[11] = dose: 100.0 mg/kg/injection, schedule: Q01DX009 (ip), vehicle: saline with Tween-80
[12] = dose: 200.0 mg/kg/injection, schedule: Q01DX009 (ip), vehicle: saline with Tween-80
[13] = dose: 25.0 mg/kg/injection, schedule: Q04DX003 (ip), vehicle: saline with Tween-80
[14] = dose: 50.0 mg/kg/injection, schedule: Q04DX003 (ip), vehicle: saline with Tween-80

Measured: T/C

COc1ccc2nc3cc(Cl)ccc3c(NCC3CCCN4CCCCC34)c2c1 (stereo not drawn)
inactive: dose: 12.5 mg/kg/injection, schedule: Q01DX005 (ip), vehicle: distilled water + Tween-80 98 % of control | dose: 25.0 mg/kg/injection, schedule: Q01DX005 (ip), vehicle: distilled water + Tween-80 103 % of control | dose: 50.0 mg/kg/injection, schedule: Q01DX005 (ip), vehicle: distilled water + Tween-80 104 % of control | dose: 100.0 mg/kg/injection, schedule: Q01DX005 (ip), vehicle: distilled water + Tween-80 113 % of control

CCN(CC)CC(C)=O
inactive: dose: 25.0 mg/kg/injection, schedule: Q01DX009 (ip), vehicle: saline 101 % of control | dose: 50.0 mg/kg/injection, schedule: Q01DX009 (ip), vehicle: saline 102 % of control | dose: 100.0 mg/kg/injection, schedule: Q01DX009 (ip), vehicle: saline 103 % of control | dose: 200.0 mg/kg/injection, schedule: Q01DX009 (ip), vehicle: saline 104 % of control

CN(C)CC(CN(C)C)C(=O)c1ccc(Oc2ccccc2)cc1
inactive: dose: 7.5 mg/kg/injection, schedule: Q01DX005 (ip), vehicle: saline 123 % of control | dose: 15.0 mg/kg/injection, schedule: Q01DX005 (ip), vehicle: saline 120 % of control

NS(=O)(=O)c1cc([N+](=O)[O-])ccc1C(=O)OC1CCCCC1
inactive: [1] 104 % of control | [2] 113 % of control | [3] 92 % of control

Cc1nn(-c2ccccc2)nc1C(=O)Nc1ccccc1C(=O)NCC1CC1
inactive: [4] 91 % of control | [5] 90 % of control and 94 % of control and 96 % of control | [6] 103 % of control and 95 % of control and 96 % of control

CC(=O)C(O)CC(=O)C(O)CC(=O)C(O)N1C(=O)C=CC1=O (stereo not drawn)
inactive: dose: 6.25 mg/kg/injection, schedule: Q01DX009 (ip), vehicle: Klucel (hydroxypropylcellulose) (HPC) 93 % of control | dose: 12.5 mg/kg/injection, schedule: Q01DX009 (ip), vehicle: Klucel (hydroxypropylcellulose) (HPC) 95 % of control | dose: 25.0 mg/kg/injection, schedule: Q01DX009 (ip), vehicle: Klucel (hydroxypropylcellulose) (HPC) 97 % of control

O=S1(=O)CC(N2CCOCC2)C2=C(O1)c1sc(-c3ccccc3)nc1CC2 (stereo not drawn)
inactive: [1] 104 % of control | [2] 105 % of control | [3] 98 % of control

CC1=CC(=O)N2CCN=C2S1
inactive: dose: 25.0 mg/kg/injection, schedule: Q04DX003 (ip), vehicle: Klucel (hydroxypropylcellulose) (HPC) 101 % of control | dose: 50.0 mg/kg/injection, schedule: Q04DX003 (ip), vehicle: Klucel (hydroxypropylcellulose) (HPC) 101 % of control | dose: 100.0 mg/kg/injection, schedule: Q04DX003 (ip), vehicle: Klucel (hydroxypropylcellulose) (HPC) 111 % of control and 98 % of control | dose: 200.0 mg/kg/injection, schedule: Q04DX003 (ip), vehicle: Klucel (hydroxypropylcellulose) (HPC) 111 % of control

O=C1CCC([N+](=O)[O-])C(c2ccccc2)N1 (stereo not drawn)
inactive: [7] 100 % of control

O=C(c1cc2c(cc1[N+](=O)[O-])OCO2)N1CCc2ccccc21
inactive: dose: 3.13 mg/kg/injection, schedule: Q01DX009 (ip), vehicle: saline with Tween-80 99 % of control | dose: 6.25 mg/kg/injection, schedule: Q01DX009 (ip), vehicle: saline with Tween-80 99 % of control | dose: 12.5 mg/kg/injection, schedule: Q01DX009 (ip), vehicle: saline with Tween-80 96 % of control | dose: 25.0 mg/kg/injection, schedule: Q01DX009 (ip), vehicle: other 99 % of control | dose: 25.0 mg/kg/injection, schedule: Q01DX009 (ip), vehicle: saline with Tween-80 94 % of control | [8] 100 % of control | [9] 107 % of control | [10] 89 % of control

O=C1NC(=O)N(c2ccc(Cl)c(Cl)c2)C1=O
inactive: dose: 50.0 mg/kg/injection, schedule: Q01DX009 (ip), vehicle: Klucel (hydroxypropylcellulose) (HPC) 94 % of control | dose: 100.0 mg/kg/injection, schedule: Q01DX009 (ip), vehicle: Klucel (hydroxypropylcellulose) (HPC) 93 % of control | dose: 200.0 mg/kg/injection, schedule: Q01DX009 (ip), vehicle: Klucel (hydroxypropylcellulose) (HPC) 94 % of control

COC(=O)C12C3c4ccccc4C1C2c1ccccc13 (stereo not drawn)
inactive: dose: 100.0 mg/kg/injection, schedule: Q04DX002 (ip), vehicle: saline 99 % of control | dose: 200.0 mg/kg/injection, schedule: Q04DX002 (ip), vehicle: saline 94 % of control | dose: 400.0 mg/kg/injection, schedule: Q04DX002 (ip), vehicle: saline 96 % of control

COc1cc2c(cc1C(C)c1ccc(Br)cc1)OCO2 (stereo not drawn)
inactive: dose: 50.0 mg/kg/injection, schedule: Q01DX005 (ip), vehicle: saline with Tween-80 96 % of control | dose: 100.0 mg/kg/injection, schedule: Q01DX005 (ip), vehicle: saline with Tween-80 103 % of control | dose: 200.0 mg/kg/injection, schedule: Q01DX005 (ip), vehicle: saline with Tween-80 100 % of control

Cc1ccc(NC(=O)CCC(=O)C(C)C(=O)c2ccccc2)cc1C (stereo not drawn)
inactive: [4] 105 % of control | [5] 105 % of control | [6] 109 % of control

CS(C)=Nc1ccc(Cl)cc1
inactive: dose: 100.0 mg/kg/injection, schedule: Q01DX001 (ip), vehicle: saline 109 % of control

C=CCCCC(=O)CCCCO
inactive: [8] 95 % of control | [9] 107 % of control | [10] 101 % of control

CC1C(=O)C(C)C(c2ccc([N+](=O)[O-])cc2)OC1c1ccccc1 (stereo not drawn)
inactive: dose: 50.0 mg/kg/injection, schedule: Q01DX001 (ip), vehicle: suspension in saline 96 % of control | dose: 100.0 mg/kg/injection, schedule: Q01DX001 (ip), vehicle: suspension in saline 100 % of control | dose: 200.0 mg/kg/injection, schedule: Q01DX001 (ip), vehicle: suspension in saline 102 % of control

O=C(O)C(Cc1ccccc1F)NC(=O)C(F)(F)F (stereo not drawn)
inactive: [7] 92 % of control | [11] 94 % of control | [12] 100 % of control

Cc1ccccc1Nc1c2ccccc2nc2ccccc12
inactive: dose: 12.5 mg/kg/injection, schedule: Q04DX003 (ip), vehicle: saline with Tween-80 95 % of control | [13] 95 % of control | [14] 104 % of control

NC(=S)c1cncnc1N
inactive: [13] 102 % of control | [14] 99 % of control | dose: 100.0 mg/kg/injection, schedule: Q04DX003 (ip), vehicle: saline with Tween-80 104 % of control

CN(C)c1ccc2c(=O)c(C(=O)O)c[nH]c2c1
inactive: dose: 6.25 mg/kg/injection, schedule: Q01DX005 (ip), vehicle: saline 96 % of control | dose: 12.5 mg/kg/injection, schedule: Q01DX005 (ip), vehicle: saline 100 % of control | dose: 25.0 mg/kg/injection, schedule: Q01DX005 (ip), vehicle: saline 96 % of control | dose: 25.0 mg/kg/injection, schedule: Q01DX009 (ip), vehicle: water 99 % of control | dose: 50.0 mg/kg/injection, schedule: Q01DX005 (ip), vehicle: saline 95 % of control | dose: 50.0 mg/kg/injection, schedule: Q01DX009 (ip), vehicle: water 101 % of control | dose: 100.0 mg/kg/injection, schedule: Q01DX009 (ip), vehicle: water 94 % of control | dose: 200.0 mg/kg/injection, schedule: Q01DX009 (ip), vehicle: water 89 % of control | dose: 400.0 mg/kg/injection, schedule: Q01DX009 (ip), vehicle: water 93 % of control

COc1ccc(OC(C)C(=O)O)cc1 (stereo not drawn)
inactive: [1] 101 % of control | [2] 98 % of control | [3] 95 % of control

CN1C(=O)C(O)N=C(c2ccccc2)c2cc(Cl)ccc21 (stereo not drawn)
inactive: [7] 101 % of control | [11] 105 % of control | [12] 117 % of control

COc1nc(NC2OC(COC(C)=O)C(OC(C)=O)C(OC(C)=O)C2OC(C)=O)c(N=CC=Nc2c(NC3OC(COC(C)=O)C(OC(C)=O)C(OC(C)=O)C3OC(C)=O)nc(OC)[nH]c2=O)c(=O)[nH]1 (stereo not drawn)
inactive: [4] 89 % of control | [5] 90 % of control | [6] 95 % of control

NC(=S)c1ccc(C=Nc2ccc(Cl)cc2)cc1
inactive: dose: 50.0 mg/kg/injection, schedule: Q01DX001 (ip), vehicle: other 102 % of control | dose: 100.0 mg/kg/injection, schedule: Q01DX001 (ip), vehicle: other 98 % of control
